# Columns and labels:
# [1] = molecular target: lactate dehydrogenase 1 (LDH-1) (Homo sapiens, UniProt P07195); conditions: in neurons; cited from earlier work
# [2] = molecular target: lactate dehydrogenase 5 (LDH-5) (Homo sapiens, UniProt P00338); conditions: in neurons; cited from earlier work
# [3] = system: rats exposed to ethylene glycol; experiment: murine model of ethylene glycol poisoning; type: in vivo, rat
# Protocol: A murine model of ethylene glycol poisoning has been prepared by giving 6 g/kg ethylene glycol orally once to twelve adult Sprague-Dawley rats (single oral administration).
# Rats have been sacrificed 48 hours after ethylene glycol intake, blood and urine parameters have been collected and kidneys have been removed for histopathological analyses.
# [4] = system: calcium-oxalate kidney stone murine model; experiment: calcium-oxalate kidney stone murine model (calcium chloride and hydroxyproline in drinking water); type: in vivo, rat; conditions: Stiripentol 4 g/L in drinking water (about 150 mg/Kg), 4 months, versus controls
# From the text: A calcium-oxalate kidney stone murine model has been generated. […] The rats have been exposed for 4 month to this diet. […] Rats have been sacrificed at the end of the protocol and kidneys have been removed for analyses.
# CYP1A2 = CYP1A2 (Homo sapiens, UniProt P05177); conditions: cited from earlier work
# Sequence of CYP1A2 (P05177 whole entry): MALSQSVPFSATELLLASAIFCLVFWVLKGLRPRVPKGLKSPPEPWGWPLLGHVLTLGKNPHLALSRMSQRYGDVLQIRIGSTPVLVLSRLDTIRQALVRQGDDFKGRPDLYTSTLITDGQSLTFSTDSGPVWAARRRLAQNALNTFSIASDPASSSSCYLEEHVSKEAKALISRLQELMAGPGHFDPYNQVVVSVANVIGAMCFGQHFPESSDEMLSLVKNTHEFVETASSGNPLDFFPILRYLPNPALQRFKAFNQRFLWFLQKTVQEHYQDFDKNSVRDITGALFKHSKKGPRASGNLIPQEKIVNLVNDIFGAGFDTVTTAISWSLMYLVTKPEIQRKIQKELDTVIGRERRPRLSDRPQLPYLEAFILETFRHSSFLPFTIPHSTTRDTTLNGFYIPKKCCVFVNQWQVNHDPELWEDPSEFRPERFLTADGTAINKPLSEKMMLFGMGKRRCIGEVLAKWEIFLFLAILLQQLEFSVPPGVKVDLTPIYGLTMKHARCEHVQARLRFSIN
# CYP3A4 = CYP3A4 (Homo sapiens, UniProt P08684); conditions: cited from earlier work
# Sequence of CYP3A4 (P08684 whole entry): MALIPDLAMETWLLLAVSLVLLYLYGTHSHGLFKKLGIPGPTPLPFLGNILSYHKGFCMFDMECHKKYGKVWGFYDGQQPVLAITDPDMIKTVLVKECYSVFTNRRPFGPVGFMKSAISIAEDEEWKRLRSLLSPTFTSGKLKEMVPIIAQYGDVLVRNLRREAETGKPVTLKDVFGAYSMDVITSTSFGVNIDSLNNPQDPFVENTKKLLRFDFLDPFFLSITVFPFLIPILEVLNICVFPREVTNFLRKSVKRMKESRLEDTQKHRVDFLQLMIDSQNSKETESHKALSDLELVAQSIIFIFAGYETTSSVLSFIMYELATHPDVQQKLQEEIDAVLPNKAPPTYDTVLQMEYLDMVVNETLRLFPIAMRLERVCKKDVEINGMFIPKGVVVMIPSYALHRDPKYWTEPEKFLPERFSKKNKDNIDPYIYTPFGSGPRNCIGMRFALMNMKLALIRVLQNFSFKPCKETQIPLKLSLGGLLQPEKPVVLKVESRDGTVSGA
# [5] = system: uptake of gamma-aminobutyric acid (GABA); conditions: cited from earlier work
# Sequence of lactate dehydrogenase 1 (LDH-1) (P07195 2-334 limits assumed): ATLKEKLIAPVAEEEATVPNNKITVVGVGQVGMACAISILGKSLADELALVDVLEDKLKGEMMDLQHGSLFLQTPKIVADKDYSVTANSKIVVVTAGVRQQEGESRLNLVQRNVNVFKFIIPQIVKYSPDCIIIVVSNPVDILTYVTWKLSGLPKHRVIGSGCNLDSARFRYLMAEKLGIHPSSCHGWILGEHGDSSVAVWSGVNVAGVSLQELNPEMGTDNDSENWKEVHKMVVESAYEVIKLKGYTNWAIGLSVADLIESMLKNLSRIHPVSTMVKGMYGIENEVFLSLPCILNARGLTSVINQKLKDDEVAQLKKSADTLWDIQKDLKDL
compound,measurement,setting,value
"C/C=C/c1ccc2c(c1)OCO2 [Isosafrole, 3,4-methylenedioxyphenyl-1-propene]",inhibition of pyruvate to lactate conversion by LDH-1,[1],inhibit
same,inhibition of pyruvate to lactate conversion by LDH-5,[2],inhibit
"CC(C)(C)C(O)/C=C/c1ccc2c(c1)OCO2 (racemic) [Stiripentol, 4,4-dimethyl-1-[(3,4-methylenedioxy)-phenyl]-1-penten-3-ol]","calcium oxalate crystals in kidneys (histopathology, kidney section coverage)","[3]; 6 g/kg ethylene glycol orally once, Stiripentol 300 mg/kg at intoxication and 4 g/L in drinking water days 1 and 2, 48 hours, p=0.0046",much less crystals
same,urinary oxalate excretion induced by ethylene glycol poisoning,[3]; Stiripentol at therapeutic range,decreases urinary oxalate excretion
same,renal function assessed by serum creatinine levels,"[3]; ethylene glycol intoxicated rats, Stiripentol 300 mg/kg then 4 g/L in drinking water, 48 hours, p=0.009",remarkably less impaired
same,calcium oxalate crystals in urine,[4],less calcium oxalate crystals in urine
same,renal function assessed by serum creatinine levels,[4]; p=0.002,preserved renal function
same,inhibition of pyruvate to lactate conversion by LDH-1,[1],inhibit
same,inhibition of CYP1A2,CYP1A2,inhibitor
same,inhibition of CYP3A4,CYP3A4,inhibitor
same,inhibition of the uptake of GABA,[5],inhibits
